The values below come from patent publication US9125898B2, “Acetam derivatives for pain relief” (NEUROTUNE AG, priority 2008, dated 2015).

The test system of assay [1] is ddC induced mechanical allodynia in rats. Briefly: ddC induced mechanical allodynia in rats, von Frey test. The settings on record: FIG. 4; 15 min after drug administration. Type of assay: in vivo, rat. As for the experimental part:
Painful peripheral NP may be induced in rats by i.v. administration of 2′,3′-dideoxycytidine (ddC) mimicking what is seen in AIDS patients undergoing antiviral therapy. The ddC test represents a useful and predictive model to study molecules with analgesic potential in human neuropathic states.
Adult male SD rats (Harlan, Italy, 150-200 g weight) were used. Animals were treated with 25 mg/kg i.v. bolus of 2′,3′-dideoxycytidine, an inhibitor of nucleoside reverse transcriptase used for AIDS therapy that in rodents induces a peripheral neuropathy resulting in allodynic responses to mechanical stimuli. Symptoms severity peaks between 5 to 10 days after administration (Joseph, E. K. et al. —Pain 107 (2004) 147-158). Ten days after administration of ddC, as an intravenous (i.v.) bolus, test substances were administered every day, once a day or b.i.d for 4 weeks. Dosing was withheld in those days in which allodynic tests were performed, and lasted for 24 h and 48 h.
NT-11624 was dissolved in distilled water and was orally by gavage administered as follows • Group 1: 100 mg/kg b.i.d. for 14 days, followed by 50 mg/kg b.i.d. for 7 days, then 50 mg/kg u.i.d. for 7 days. • Group 2: 50 mg/kg b.i.d. for 28 days.
Pregabalin (3B Pharmachem (Wuhan) International Co.) was dissolved in 1% CMC (carboxymethylcellulose) and orally administered at the dose of 15 mg/kg b.i.d. for 28 days.
Thresholds for mechanical allodynia were measured using an electronic Von Frey apparatus. […] After 4 week drug administration, additional tests were performed beyond the 60 min point, at 4, 8, 24, 48 and 56 h. Results represent the mean (±S.E.M.) of mechanical thresholds expressed in grams.
Drugs: The following substance was used: NT-11624 (batch No. 0000104580 supplied by Brane Discovery Srl, Gerenzano Italy). NT-11624 was dissolved in distilled water and given p.o. every day, except in those days in which allodynic tests were performed and lasted for 24 h, 48 h and 56 h (i.e. days 1, 3, 7, 10, 14, 21, 28).
The following groups of treatment were utilized: • NT-11624 (Group 1): rats received 100 mg/kg b.i.d. of NT-11624 for 14 days, then 50 mg/kg b.i.d. for 7 days, then 50 mg/kg u.i.d. for 7 days. • NT-11624 (Group 2): rats received 50 mg/kg b.i.d. for 28 days • Pregabalin: rats received 15 mg/kg b.i.d. for 28 days
Administration volume was 10 ml/kg body weight. Pregabalin [3B Pharmachem (Wuhan), International Co] was dissolved in CMC 1% (carboxymethylcellulose, Sigma-Aldrich, Italy), and orally given as described before. Control rats received vehicle only.
ddC intravenous injection: ddC was dissolved in saline to a concentration of 25 mg/kg (1 ml) and was administered i.v. into the rat tail vein. Control rats were treated with an equal volume of saline i.v.
The administration of ddC produces dose-dependent mechanical hypersensitivity and allodynia peaking in severity between 5-10 days after the administration. The test is usually performed at day 10.
Von Frey test: Each animal was placed in a chamber with a mesh metal floor covered by a plastic dome that enabled the animal to walk freely, but not to jump. The mechanical stimulus was then delivered in the mid-plantar skin of left hind paw using an electronic Von Frey apparatus (37400 Dynamic Plantar Aesthesiometer; Ugo Basile, Comerio, Varese, Italy). The cut-off was fixed at 50 g, while the increasing force rate (ramp duration) was settled at 20 sec. […] At day 28, additional tests were performed at 4, 8, 24, 48 and 56 h after drug administration. Results represent the mean (±S.E.M.) of mechanical thresholds expressed as grams.

Assay [2] deals with chronic constriction injury induced hyperalgesia in the rat. Nature of the assay: Chronic constriction injury induced hyperalgesia in the rat (paw-pressure test). Type of assay: in vivo. The settings on record: for Paw pressure, pre-test before all treatments: baseline, drug 100 mg/kg p.o.; for Paw pressure, 5 day 30 min / Paw pressure, 10 day 30 min / Paw pressure, 14 day 30 min / Paw pressure, 14 day 4 h / Paw pressure, 14 day 8 h / Paw pressure, 15 day 24 h / Paw pressure, 18 day 3 days: 100 mg/kg p.o. once a day for 14 days. The protocol: In the repeated administration protocol, NT-13317 was orally administered at 100 mg/kg in 1% CMC once a day for 14 days starting from the day of sciatic nerve ligation.
Peripheral rat mononeuropathy (Chronic constriction injury): Neuropathy was induced according to the procedure described by Bennett and Xie (Bennett G J, Xie Y K. A peripheral mononeuropathy in rat that produces disorders of pain sensation like those seen in man. Pain 1988; 33: 87-107).
Briefly, rats were anaesthetized with chloral hydrate 400 mg/kg intraperitoneally (i.p.); under aseptic conditions, the right common sciatic nerve was exposed at the level of the middle thigh by blunt dissection. Proximal to the trifurcation, the nerve was carefully freed from the surrounding connective tissue and four chromic cat gut ligatures (4-0, Ethicon, Norderstedt, Germany) were tied loosely around it with about 1 mm spacing. After haemostasis was confirmed, the incision was closed in layers. Then animals were allowed to recover from anaesthesia and surgery and were kept one per cage with free access to water and standard laboratory chow.
Statistical analysis: All experimental results are given as the mean±S.E.M. An analysis of variance, ANOVA, followed by Fisher's protected least significant difference procedure for post hoc comparison, were used to verify significance between two means of behavioural results. Data were analyzed with the StatView software for the Macintosh (1992). P values≦0.05 were considered significant.
Data of mechanical threshold (PWT) were converted to a percentage of the maximal possible effect (% MPE), according to Veneroni, O. et al. as follows: %MPE=(left dose PWT−left pre-dose control PWT)/(left naïve PWT−left pre-dose PWT)*100
The obtained % MPE were employed for ED50 calculation (obtained by Grafit v. 5.0), defined as the dose producing 50% reversal of mechanical allodynia.

As for `NCC1(CC(=O)O)CCCCC1` [GABAPENTIN, Gabapentin, reference compound], in assay [1], the “Reversal of ddC-induced neuropathy (mechanical threshold, von Frey)” value is on record as “not”. Also, the “Paw pressure, pre-test before all treatments” value in assay [2] (CCI group) is recorded as 62.9 ± 3.3 g. Further, in assay [2] (CCI), the “Paw pressure, 5 day 30 min” value was 52.4 ± 4.6 g; the “Paw pressure, 10 day 30 min” value was found to be 52.7 ± 5.6 g; the “Paw pressure, 14 day 30 min” value is 56.7 ± 6.2 g; the “Paw pressure, 14 day 4 h” value is 57.1 ± 5.5 g. In assay [2] (CCI), the “Paw pressure, 14 day 8 h” value amounted to 62.3 ± 6.5 g; the “Paw pressure, 15 day 24 h” value came to 59.6 ± 5.7 g; the “Paw pressure, 18 day 3 days” value stood at 58.2 ± 5.5 g. In addition, the “Paw pressure, pre-test before all treatments” value in assay [2] (SHAM group) was found to be 61.8 ± 2.9 g. In addition, in assay [2] (SHAM), the “Paw pressure, 5 day 30 min” value is reported as 63.2 ± 4.1 g; the “Paw pressure, 10 day 30 min” value came out at 69.2 ± 5.1 g; the “Paw pressure, 14 day 30 min” value turned out to be 71.2 ± 6.3 g; the “Paw pressure, 14 day 4 h” value stood at 69.2 ± 5.6 g. For the same compound, in assay [2] (SHAM), the “Paw pressure, 14 day 8 h” value came to 70.4 ± 5.9 g; the “Paw pressure, 15 day 24 h” value is recorded as 68.5 ± 5.8 g; the “Paw pressure, 18 day 3 days” value came out at 66.4 ± 4.8 g. Moreover, the “Effect on paw pressure test after the last administration (in words)” value in assay [2] (p.o. 100 mg/kg once a day for 14 days from the day of sciatic nerve ligation) is reported as “still active after 72 hr”.
